Test results: PubChem BioAssay (NCI)
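Assay format: 96-well plates, 48-hour exposure. TGI is the concentration that stops growth completely.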

What was measured:
Experiment in all cases: DTP human tumour cell line panel, 48 h
MALME-3M melanoma = test system: MALME-3M melanoma
SK-MEL-2 melanoma = test system: SK-MEL-2 melanoma
NCI/ADR-RES ovarian = test system: NCI/ADR-RES ovarian
UACC-257 melanoma = test system: UACC-257 melanoma
SF-539 CNS = test system: SF-539 CNS
SNB-75 CNS = test system: SNB-75 CNS
IGROV1 ovarian = test system: IGROV1 ovarian
HOP-92 NSCLC = test system: HOP-92 NSCLC
MCF7 breast = test system: MCF7 breast
OVCAR-4 ovarian = test system: OVCAR-4 ovarian

| SMILES | TGI (MALME-3M melanoma) [µM] | TGI (SK-MEL-2 melanoma) [µM] | TGI (NCI/ADR-RES ovarian) [µM] | TGI (UACC-257 melanoma) [µM] | TGI (SF-539 CNS) [µM] | TGI (SNB-75 CNS) [µM] | TGI (IGROV1 ovarian) [µM] | TGI (HOP-92 NSCLC) [µM] | TGI (MCF7 breast) [µM] | TGI (OVCAR-4 ovarian) [µM] |
| --- | --- | --- | --- | --- | --- | --- | --- | --- | --- | --- |
| CC(C)(C)NC(=O)[C@H]1CC[C@H]2[C@@H]3CC=C4NC(=O)CC[C@]4(C)[C@H]3CC[C@]12C | > 100 | > 100 | > 100 | > 100 | > 100 | 99 | > 100 | > 100 | > 100 | > 100 |
| CN(C)C(CN)CC1=C(CC(CN)N(C)C)CCC1 (stereo not given) | > 100 | > 100 | > 100 | > 100 | > 100 | > 100 | > 100 | > 100 | > 100 | > 100 |
| C=C1[C@@H](O)C[C@@]23CC[C@@H]4[C@@]5(C)CC[C@@H](OC(C)=O)C(C)(C)[C@@H]5C[C@@H](OC5OC(COC(C)=O)C(O)C(O)C5O)[C@@]4(C)C2=CC[C@H]3[C@H]1C (stereo not given in full) | 23.9 | 7.39 | 35.3 | 26 | 24.5 | 16.1 | 15 | 20.5 | 7.77 | 21 |
| O=C(O)C1CC(c2ccc(F)cc2)=Nc2ccc(F)cc2S1 (stereo not given) | > 100 | > 100 | > 100 | > 100 | > 100 | > 100 | > 100 | > 100 | > 100 | > 100 |
| O=C(Nc1cccc2cnccc12)c1cc2c(cc1Cl)Sc1nccn1S2(=O)=O | 38.7 | 32.2 | 57.8 | 45.1 | 59.3 | 47.4 | 45.8 | 59.4 | 37.1 | 87.1 |
| CCSC1=CC(=O)c2nc3ccccc3c3ccnc1c23 | 3.32 | 5.6 | > 30.1 | 4.19 | 13.2 | 26.6 | 9.4 | 38.6 | 4.79 | 7.53 |
| CC1(C)O[C@@H]2COC(=O)[C@@H]2O1 | > 100 | > 100 | > 100 | > 100 | > 100 | > 100 | > 100 | > 100 | > 100 | > 100 |
| O=C(CN1CCCCC1)CC(O)(C(F)(F)F)C(F)(F)F | > 100 | > 100 | > 100 | > 100 | > 100 | > 100 | > 100 | > 100 | > 100 | > 100 |
| COCOc1ccc(OC)cc1 | > 100 | > 100 | > 100 | > 100 | > 100 | > 100 | > 100 | > 100 | > 100 | > 100 |
| CC1(C)C(c2ccccc2)=[N+]([O-])C(C)(C)N1O | > 10 | > 10 | > 10 | > 10 | > 10 | > 10 | > 10 | > 10 | > 10 | > 10 |
| O=c1c2ncn(C3CC(O)C(CO)O3)c2nnn1Cc1ccccc1[N+](=O)[O-] (stereo not given) | > 100 | > 100 | > 100 | > 100 | > 100 | > 100 | > 100 | > 100 | > 100 | > 100 |
| C/C(=C\c1ccccc1)C(=O)CCN1CCOCC1 | 33 | > 59.9 | 50.5 | 30.6 | 34.6 | > 66.1 | > 61.9 | 37.1 | 20.9 | 32.9 |
